The values below are quoted from earlier work in patent US7029703B2, “Composition for promoting healthy bone structure” (Metagenics, Inc., priority 1999, dated 2006).

The conditions of data set [1]: postmenopausal osteoporosis.
For data set [2] the following is noted: 600 mg ipriflavone/day along with 1 gram calcium.
Another data set relates to osteoblast-like cells. As to conditions: in vitro.
The conditions of data set [3]: in animals and in humans.
For data set [4] the following is noted: clinical trials; consumption data of up to 2 years.

Take `O=C([O-])[O-].[Ca+2]` [calcium carbonate]: the “rate of bone loss” value in data set [1] is listed as “reduced the rate of bone loss by about half”.
Regarding `CC(C)Oc1ccc2c(=O)c(-c3ccccc3)coc2c1` [ipriflavone, 7-isopropoxyisoflavone], in data set [2], the “Urinary hydroxyproline/creatinine (HOP/Cr)” value was “reduced” and the “serum osteocalcin (BGP)” value was “reduced”. In addition, the “increase in BMD at the distal radius (DPA)” value in data set [2] (28 osteoporotic elderly women, P<0.05) is listed as 6%. In the data set with osteoblast-like cells, the alkaline phosphatase activity result was “increases” and the collagen synthesis result is reported as “increases”. Besides, the estrogenic activity result in data set [3] was “devoid of any estrogenic activity”. For the same compound, the Bone pain entry (during the 1200/600 mg sequence of ipriflavone) was “significantly decreased”. The “Serum alkaline phosphatase (ALP) decrease” value (following the 1200/600 mg ipriflavone sequence, P<0.01) is 33%. Further, the “hydroxy proline/creatinine (HOP/Cr) decrease” value (following the 1200/600 mg ipriflavone sequence, P<0.05) is recorded as 24.1%. For the same compound, the “frequency of adverse reactions” value in data set [4] is given as “equal to that observed during administration of a placebo”.
